Results: patent US8575376B2, “Steroide anionic compounds, method of their production, usage and pharmaceutical preparation involving them” (Ustav Organicke Chemie A Biochemie Akademie Ved Ceske …, priority 2009, dated 2013)

Columns and labels:
Assay type in all cases: in vivo, rat
rats [1] = assay: Spontaneous locomotor activity in the open-field test; conditions: 1 and 10 mg/kg s.c., 30 min before, 30 min session
Procedure: Animals were tracked with Ethovision Pro system (Noldus, Netherlands) and total path traveled during this session was evaluated. The compound from Example 9 was applied subcutaneously (dissolved in cyclodextrin) 30 min prior to behavioral observations at doses 1 mg/kg a 10 mg/kg; control animals were injected with saline.

Long-Evans rats = assay: Learned helplessness model of affective disorders; conditions: 1 mg/kg i.p. after inescapable shocks, tested 24 h later, p<0.01 vs LH group
Procedure: Male Long-Evans rats weighing 350-450 g were used. Animals were housed in groups in an air-conditioned room with 12 h/12 h light/dark cycle with the lights on at 7 a.m. Water and food were available ad libitum. Animals were randomly assigned to 3 groups—control group (received no shocks), learned helplessness group (received shocks) and experimental group (received shocks and injection of compound from example 9). An experimental set-up was composed of two chambers separated by a sliding door. The transparent shock chamber (48×20×20 cm) with one entrance led to the dark chamber (25×15×15 cm) made of black plexiglass. The floor of the shock chamber consisted of metal rods. Shocks were delivered through the grid floor. A shock generator (Data acquisition MF624 multifunction I/O board for PCI, Humusoft Ltd., Czech Republic) was connected to and controlled by a computer. On the pre-treatment day rats were individually placed into the apparatus for 10-minute habituation period. The sliding door separating two chambers was removed allowing free movements between the compartments. Immediately after the habituation rats were confined to the shock chamber for 1 hour. Inescapable shocks (72 V) of 10 s duration were delivered at 50 s intervals. Afterwards animals were injected i.p. with compound from example 9 in dose of 1 mg/kg. […] The number of escapes was recorded. […]

rats [2] = assay: Forced swim test; conditions: 1 mg/kg i.p., 60 min prior, p<0.001
Procedure: Forced swim test is an experimental model of depression and excessive stress used in laboratory rodents. Rats were randomly assigned to two groups of seven animals each. Control group received an injection of cyclodextrine (i.p.) 60 min. prior to experiment, while experimental group was injected i.p. with the compound from example 9 in a dose of 1 mg/kg 60 minutes prior to the experiment. Rats were forced to swim by being individually placed into a bucket (30 cm diameter, 28 cm height) containing water (25° C.). Immobility (floating) in the water is interpreted as a state of despair when the animals realize that an escape is impossible. Immobility was defined as floating (as opposed to active swimming) with minimal effort required for keeping the head above water. All animals received a single 30-minute trial and their behaviour was monitored by an experimenter. The trial was divided into six 5-minute intervals and floating of at least 30 second duration within each interval was recorded by the experimenter.

Wistar rats = assay: Thermal nociception, plantar test (limb and tail withdrawal latency)
Procedure: The effect of the compound from example 9 was assessed on acute nociception in rat. Pain was evaluated by measurement of paw/tail withdrawal latencies. Male Wistar rats (Velaz, Czech Republic) were used. Animals were kept at 22° C. (relative humidity was 40-70%) under a 12-hour light/12-hour dark cycle. All experiments were approved by the Committee for Animal Care and conducted in accordance with the ethical guidelines of the International Association for the Study of Pain. The animals were randomly divided into experimental and testing groups groups. The compound from example 9 was dissolved in β-cyclodextrine (the concentration 1.0 mg/ml and 10 mg/kg injected intraperitoneally or β-cyclodextrine injected intraperitoneally in same volume).
Thermal nociception was determined using plantar test equipment (Ugo Basile, Italy). The latency (in seconds) of forelimb, hindlimb or tail withdrawals to the noxious thermal stimulation was measured. Each animal was placed individually in a clear plastic box with a clear glass floor, and was allowed to acclimatize for 10 min; the temperature and humidity in the testing room were kept in the same range as those in the housing rooms. The latencies were measured 3 times per session, separated by a minimum interval of 5 min, and the mean value was used for further analysis. Infrared intensity was set to 40% and the maximum cutoff value was set at 22 seconds to avoid thermal injury. The testing box was cleaned after each session.

rats [3] = assay: Ischemic-hypoxic brain damage (bilateral carotid occlusion + 10% O2): AAPA, rotarod, beam walking
Procedure: The effect of compound from example 9 on cognitive coordination and motor activity was examined in stroke model of ischemic brain injury. Ischemic-hypoxic damage was induced by bilateral occlusion of common carotid arteries and subsequent confinement in box with 10% O2 (for 30 min). The animals were injected i.p. by compound from example 9 dissolved in β-cyclodextrine (1 mg/kg) immediately after their removal from box. Ischemic group was injected only by β-cyclodextrine in the same time and volume. Surgery was conducted under anesthesia (xylazine 6 mg/kg, thiopental 50 mg/kg).
It is known that ischemia-hypoxia causes neuronal necrosis in specifically vulnerable areas of brain. The two-vessel occlusion/hypoxic model gives rise to stroke changes, for example in cells of the hippocampus, caudatoputamen and neocortex. As such structures are intimately involved in memory, cognitive and motor processes, ischemia/hypoxia leads to impairment in these functions. Used animal model of stroke damage dealing with ischemia/hypoxia has enabled the identification of deleterious phenomena that may be corrected or neutralized by drugs.
The effect of ischemic was evaluated a week after surgical procedures in AAPA task, beam walking and rotarod. Ischemia led to deterioration of motor activity (rotarod and beam walking) and deficit in cognitive coordination.

[4] = 1 mg/kg i.p. immediately after hypoxia, tested a week later

CC(=O)[C@H]1CC[C@H]2[C@@H]3CC[C@@H]4C[C@H](OC(=O)[C@@H](N)CCC(=O)O)CC[C@]4(C)[C@H]3CC[C@]12C [Example 9, 20-Oxo-5β-pregnan-3α-yl L-glutamyl 1-ester]
total distance traveled in the open-field session (spontaneous locomotor activity) (rats [1]): did not significantly alter the spontaneous locomotor activity
number of escapes (learned helplessness) (Long-Evans rats): significantly increased number of escapes
time spent floating / time to immobility in forced swim test (rats [2]): spent significantly less time by floating, in comparison to controls
limb withdrawal latency to thermal stimulus (Wistar rats; 1 mg/kg i.p.): Such an effect was not however observed
tail withdrawal reaction to thermal stimulus (Wistar rats; 10 mg/kg i.p.): suppressed reactivity to painful stimuli
limb withdrawal latency to thermal stimulus (Wistar rats; 10 mg/kg i.p., p<0.001): significantly prolonged interval of resistance to a painful stimulus
tail withdrawal reaction to thermal stimulus (Wistar rats; lower dose (1 mg/kg i.p.)): did not yield such an effect
total path in AAPA after ischemia/hypoxia (rats [3]; 1 mg/kg i.p.): None of the experimental condition affected locomotion in AAPA
cognitive deficit in AAPA (entrances) after ischemia/hypoxia (rats [3]; [4]): improves cognitive deficit induced by ischemic/hypoxic procedures in AAPA task
motor changes in rotarod and beam walking after ischemia/hypoxia (rats [3]; [4]): has no effect on disturbance of motor changes in rotarod and beam walking test
